Patent US20230038373A1, “STABILE CONJUGATE” (Glykos Biomedical OY, priority 2019, published 2023)
“And” between values parts separate entries of the source, which are not always exact repeats. Equal values may be shown once.

Legend:
[1] = Stability of kifunensine ester compounds in buffered cell culture medium (MALDI-TOF MS); type: physicochemical; settings: 5 days' incubation in buffered cell culture medium at +37° C.; signal vs hydrolysis product kifunensine
Protocol: (§1) Serum was obtained from laboratory mice according to ethical permission, or from healthy human volunteers, and prepared with standard procedures. Buffer stability test were performed either in phosphate-buffered saline (PBS, Gibco) or standard cell culture medium recommended for SK-BR-3 cells by the ATCC (about neutral pH). Payload-linker molecules were incubated in serum, buffer or medium, after which the incubation mixture was analyzed by MALDI-TOF MS as described above. […] Similar studies were also conducted with the 33DFTG-ester compounds, further verifying the observation of stabilization by carboxylic acid modifications of the ester against esterase hydrolysis. However, all the kifunensine ester compounds, when applied in 10 μM concentration to SK-BR-3 cell culture for three days, were active in mannosidase I inhibition (as shown by MALDI-TOF MS analysis of neutral N-glycans of the SK-BR-3 cells after the incubation as described below), showing that regardless of the relative protection from serum esterase hydrolysis, the esters could still be hydrolysed in cells to liberate the active payload.

[2] = Stability of kifunensine ester compounds in mouse serum (MALDI-TOF MS); type: in vitro ADME; settings: 4 days' incubation in mouse serum at +37° C.
Protocol: as §1

[3] = tested on: immature dendritic cells (iDCs) with SK-BR-3 cells; experiment: Dendritic cell activation assay (iDC / SK-BR-3 co-culture, fractalkine secretion); type: cell-based, human; settings: 5 nM test compound
Excerpt: Monocytes were isolated from human peripheral blood (buffy coat) from healthy adult donors (Finnish Red Cross Blood Service) by using magnetic-activated microbead based cell sorting for CD14 positive cells (Miltenyi Biotec). Monocytes were differentiated to immature dendritic cells (iDCs) by using Mo-DC Differentiation Medium (Miltenyi Biotec) according the manufacturer's instructions. On day 6, to analyze cell surface expression of maturation markers, the iDCs were labeled with specific monoclonal antibodies for CD209 (R&D Systems) and CD14 (eBioscience). Nonspecific antibody binding was assessed using appropriate isotype controls. The iDCs were used for co-culture experiment on day 7.
SK-BR-3 cells (ATCC) were cultured in DMEM (Gibco) containing GlutaMAX and supplemented with 10% heat-inactivated fetal bovine serum (FBS, Gibco). SK-BR-3 cells were plated in 96-well plate (5000 c/well) in the presence or absence of […] kifunensine (Carbosynth Limited) and cultured for 5 days. Before start of the co-culture, SK-BR-3 cells were washed twice with RPMI 1640 medium (Gibco). Differentiated iDCs were collected and 0.11×10^6 cells/well were added together with the test compounds to SK-BR-3 cells and cells were incubated for 24 h at +37° C. in 5% CO2. The experiment medium was RPMI 1640 medium (Gibco) containing 10 mM Hepes and 2 mM glutamine and supplemented with 10% FBS (Gibco). All treatments were performed as duplicates. […] Phorbol 12-myristate 13-acetate (PMA, Abcam) was used as positive control. After 24 h co-culture of iDCs and SKBR-3 cells, the cell supernatants were collected and centrifuged (3000 g, 5 min, +4° C.) to remove cells and debris. The supernatants were frozen and subjected to cytokine and chemokine analysis with Human Cytokine 48-Plex Discovery Assay (EVE Technologies, Canada).

[4] = tested on: mannosidase I; experiment: N-glycan profiling of SK-BR-3 cells after inhibitor/ADC treatment (mannosidase I inhibition); type: cell-based; settings: 10 μM, 3 days
Protocol: SK-BR-3 breast cancer cells (ATCC) were cultured in recommended conditions and incubated with glycosylation inhibitors and ADCs for three days. The cells were then subjected to N-glycan profiling with MALDI-TOF MS essentially as described in Leijon et al. 2017, J Clin Endocrinol Metab 102(11):3990-4000, although without the deparaffinization step.

[5] = tested on: processing α-mannosidase; experiment: N-glycan profile of HCC-1954 cancer cells after kifunensine or ADC; type: cell-based; settings: HCC-1954 cells, 3-4 days; 10 pM kifunensine; 10 nM or 100 nM ADC
Protocol: (§2) JIMT-1 cancer cells (DSMZ-German Collection of Microorganisms and Cell Cultures; variable/medium HER2 expression) and HCC-1954 cancer cells (ATCC; high HER2 expression) were cultured according to the manufacturers' instructions in standard cell culture conditions and incubated for 3-4 days with either […] kifunensine or trastuzumab-kifunensine ADCs. Effect on N-glycan profiles of the cells was analyzed by isolating cellular N-glycans and MALDI-TOF MS as described above.

[6] = tested on: processing α-mannosidase; experiment: N-glycan profile of JIMT-1 cancer cells after kifunensine or ADC; type: cell-based; settings: JIMT-1 cells, 3-4 days
Protocol: as §2

[7] = tested on: B16-F10 melanoma subcutaneous tumor; experiment: Syngeneic B16-F10 melanoma subcutaneous tumor model; type: in vivo, C57BL/6J mice; settings: day 15; three 10 mg/kg doses on days 2, 7 and 12 (i.v.; anti-PD-1 i.p.); control group 1534 mm^3
Protocol: Treatment groups (n=7) were administered with three 10 mg/kg intravenous infusions of antibody or ADC to the tail vein in PBS on days 2, 7 and 12 after subcutaneous inoculation of 0.5 million B16-F10 cells in each mouse. Anti-PD-1 antibody (n=7) was administered by intraperitoneal injection. Control mice (n=5) received no injections. Plotting of the average tumor size was stopped when first mouse in the group was killed due to tumor growth.
Tumor growth was followed by palpation. After caliper measurement, tumor volume was calculated according to 0.5×length×width^2. The first dosings were administered 2 days after inoculation and subsequent doses at 5 days' intervals. Mice were randomly divided into study groups.
The B16-F10 tumor-bearing mice (strain C57BL/6J) were administered as described above with three 10 mg/kg i.v. (intravenous infusion to the tail vein in PBS) doses each of avelumab, avelumab-cyclo-MeMe-kifunensine (DAR=21-28) and avelumab-AANA-kifunensine (DAR=8) as well as with three 10 mg/kg i.p. (intraperitoneal injection in PBS) doses of anti-mouse-PD-1 antibody (InvivoMAb, clone RMP1-14, rat IgG2a kappa). Control mice received no injections. All study groups included 7 tumor-bearing mice while the control group included 5 tumor-bearing mice.

[8] = tested on: mannosidase I; experiment: ADC activity in SK-BR-3 cells after incubation of the ADC in human and mouse sera; type: cell-based; settings: 7 days' incubation in both human and mouse sera, then 10 nM in SK-BR-3 culture for three days
[9] = tested on: HCC-1954 xenograft tumors; experiment: HCC-1954 xenograft: N-glycan profiling of tumors and tissues after ADC dosing; type: in vivo, mice (Balb/cAnNRj-Foxn1nu-nu); settings: three 10 mg/kg i.v. doses, tumors collected on day 8
Protocol: The study was performed at the TCDM/Central Animal Laboratory, University of Turku, Finland, according to the appropriate ethical committee approval. Cells for inoculation to mice were prepared in vigorous exponential growth phase. 5 million cells in 50% Matrigel were inoculated s.c. to the flank of each mouse. Clinical signs and general behavior of the animals was observed regularly. […] Tumor growth was followed by palpation. After caliper measurement, tumor volume was calculated according to 0.5×length×width^2. The first dosings were administered when average tumor volume reached […]. Mice were evenly divided into study groups so that each group received similar distribution of different-sized tumors and the average tumor volumes were similar in each group. The mice received two additional dosings at 3 days and 6 days after the first dosing. Control mice received no dosings. At the end of the study on day 8 after the first dosing, the mice were sacrificed and representative samples of the tumors, blood (serum), liver, spleen, skin and muscle were taken and frozen for analyses.
Test substances were prepared as described above. […] The samples were subjected to N-glycan profiling with MALDI-TOF MS essentially as described above.

[10] = SK-BR-3 + iDCs 24 h co-culture, SK-BR-3 pretreated with 10 pM kifunensine for 5 days

Compound: CC(C)(C)C(=O)OC[C@@H]1[C@@H](O)[C@H](O)[C@H](O)[C@H]2NC(=O)C(=O)N12 [6-(2,2-dimethyl)propanoyl-kifunensine, 9-(2,2-dimethylpropionyl)-kifunensine ester]
- stability against chemical hydrolysis in neutral pH [1]: reasonably stable
- compound detected after incubation in mouse serum (ester hydrolysis) [2]: still present

Compound: CC[C@H](C)C(=O)OC[C@@H]1[C@@H](O)[C@H](O)[C@H](O)[C@H]2NC(=O)C(=O)N12 [6-(2-methyl)butanoyl-kifunensine, 9-(2-methylbutanoyl)-kifunensine ester]
- stability against chemical hydrolysis in neutral pH [1]: reasonably stable
- compound detected after incubation in mouse serum (ester hydrolysis) [2]: not detected on day 4

Compound: CCCC(=O)OC[C@@H]1[C@@H](O)[C@H](O)[C@H](O)[C@H]2NC(=O)C(=O)N12 [6-butanoyl-kifunensine, 9-butanoyl-kifunensine ester]
- stability against chemical hydrolysis in neutral pH [1]: reasonably stable
- compound detected after incubation in mouse serum (ester hydrolysis) [2]: not detected on day 4

Compound: O=C(O)CCC(=O)OC[C@@H]1[C@@H](O)[C@H](O)[C@H](O)[C@H]2NC(=O)C(=O)N12 [6-succinyl-kifunensine, 9-succinyl-kifunensine]
- stability against chemical hydrolysis in neutral pH [1]: reasonably stable
- compound detected after incubation in mouse serum (ester hydrolysis) [2]: still present

Compound: CCCCCCCCCCCCCC(=O)O[C@@H]1[C@@H](C)[C@@]2(O)[C@@H](C=C(CO)C[C@]3(O)C(=O)C(C)=C[C@@H]23)[C@@H]2C(C)(C)[C@]12OC(C)=O [PMA, Phorbol 12-myristate 13-acetate]
- Fractalkine [3, 10]: 158.90 pg/mL
- Fractalkine ([3]; SK-BR-3 + iDCs 24 h co-culture, without kifunensine pretreatment): 45.18 pg/mL
- Fractalkine ([3]; iDCs without SK-BR-3 cells): 8.27 pg/mL

Compound: O=C1N[C@@H]2[C@@H](O)[C@@H](O)[C@H](O)[C@@H](CO)N2C1=O [kifunensine]
- average number of mannose residues (Man) in the Man5-9GlcNAc2 glycan signal series [4]: over 8.5
- relative proportion of complex-type N-glycans [5]: drastically diminished
- N-glycan profile change (Man9 increase, complex-type decrease) relative to HCC-1954 cells [6]: less intensive
- Fractalkine [3, 10]: 121 pg/mL and 120.94 pg/mL

Compound: avelumab: recombinant fully human IgG1 anti-PD-L1 antibody (Bavencio)
- average tumor volume [7]: 472 mm^3

Compound: trastuzumab-[DBCO-PEG4-(octakis-amino)-γ-cyclodextrin-(9-(di-3-thio-propanoyl)-kifunensine)7]4 [trastuzumab-cyclo-kifunensine]
- reduction of activity after serum incubation [8]: over 50%
- average mannose residues (Man) in the Man5-9GlcNAc2 glycan signal series of tumors [9]: 7.36
- proportion of complex-type N-glycans in the tumors [9]: 11%
- proportion of high-mannose type N-glycans of the total neutral N-glycans in the tumors [9]: 78%

Compound: trastuzumab-[GalNAz-DBCO-PEG4-(octakis-amino)-γ-cyclodextrin-(9-(4-methyl-4-thio-butanoyl-3-thiopropanoyl)-kifunensine)7]4 [trastuzumab-cyclo-Me-kifunensine]
- relative proportion of complex-type N-glycans [5]: drastically diminished
- N-glycan profile change (Man9 increase, complex-type decrease) relative to HCC-1954 cells [6]: less intensive
- average mannose residues (Man) in the Man5-9GlcNAc2 glycan signal series of tumors [9]: 7.40
- proportion of complex-type N-glycans in the tumors [9]: 10%
- proportion of high-mannose type N-glycans of the total neutral N-glycans in the tumors [9]: 80%
